Data taken from patent US11420958B2, “Aryl and heteroaryl substituted indole compounds” (BRISTOL-MYERS SQUIBB COMPANY, priority 2017, dated 2022).
pIC50: −log10 of the molar value.

Columns and labels:
Format in all cases: cell-based
human TLR7 = human TLR7 (Homo sapiens (Human), UniProt Q9NYK1); experiment: TLR7 inhibition reporter assay (HEK-Blue, SEAP); settings: HEK-Blue cells overexpressing human TLR7, gardiquimod 7.5 μM stimulation
Method in brief: (§1)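 SEAP read-out via detection medium after 22 h at 37 °C, 5% CO2; percent inhibition relative to agonist-plus-DMSO and known-inhibitor wells. Agonists: TLR7 gardiquimod 7.5 μM, TLR8 R848 15.9 μM, TLR9 ODN2006 5 nM (final). Compound range 0.05 nM–50 μM, 30 min pre-treatment.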

human TLR8 = human TLR8 (Homo sapiens (Human), UniProt Q9NR97); experiment: TLR8 inhibition reporter assay (HEK-Blue, SEAP); settings: HEK-Blue cells overexpressing human TLR8, R848 15.9 μM stimulation
Method in brief: as §1

human TLR9 = human TLR9 (Homo sapiens (Human), UniProt Q9NR96); experiment: TLR9 inhibition reporter assay (HEK-Blue, SEAP); settings: HEK-Blue cells overexpressing human TLR9, ODN2006 5 nM stimulation
Method in brief: as §1

Sequence of human TLR7 (Q9NYK1 27-1049): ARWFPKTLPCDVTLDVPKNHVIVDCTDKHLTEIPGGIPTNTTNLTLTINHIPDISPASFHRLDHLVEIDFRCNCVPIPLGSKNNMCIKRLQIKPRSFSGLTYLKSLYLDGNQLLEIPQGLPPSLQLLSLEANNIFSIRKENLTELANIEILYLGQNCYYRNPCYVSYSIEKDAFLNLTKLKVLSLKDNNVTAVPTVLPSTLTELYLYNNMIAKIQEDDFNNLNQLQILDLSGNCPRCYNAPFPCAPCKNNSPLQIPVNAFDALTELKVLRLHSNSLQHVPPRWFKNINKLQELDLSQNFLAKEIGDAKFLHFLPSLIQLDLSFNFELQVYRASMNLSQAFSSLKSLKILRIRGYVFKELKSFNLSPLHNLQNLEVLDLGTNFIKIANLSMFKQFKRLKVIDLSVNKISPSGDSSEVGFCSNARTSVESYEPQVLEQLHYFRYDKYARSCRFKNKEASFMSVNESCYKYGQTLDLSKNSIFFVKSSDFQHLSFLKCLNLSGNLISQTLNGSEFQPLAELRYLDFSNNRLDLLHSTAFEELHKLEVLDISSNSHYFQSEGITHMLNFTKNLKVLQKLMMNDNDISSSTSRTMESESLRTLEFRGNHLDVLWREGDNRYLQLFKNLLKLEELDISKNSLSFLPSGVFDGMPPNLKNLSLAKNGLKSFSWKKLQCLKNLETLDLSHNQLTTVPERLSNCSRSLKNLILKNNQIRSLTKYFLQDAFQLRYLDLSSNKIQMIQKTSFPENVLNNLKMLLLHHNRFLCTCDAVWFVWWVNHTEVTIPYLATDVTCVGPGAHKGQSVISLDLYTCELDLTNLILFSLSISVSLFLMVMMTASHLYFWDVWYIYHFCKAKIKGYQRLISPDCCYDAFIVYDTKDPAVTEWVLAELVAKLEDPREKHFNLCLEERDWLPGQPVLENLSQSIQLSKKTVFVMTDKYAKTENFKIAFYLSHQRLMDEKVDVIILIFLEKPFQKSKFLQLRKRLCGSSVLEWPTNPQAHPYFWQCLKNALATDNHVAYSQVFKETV
Sequence of human TLR8 (Q9NR97 27-1041): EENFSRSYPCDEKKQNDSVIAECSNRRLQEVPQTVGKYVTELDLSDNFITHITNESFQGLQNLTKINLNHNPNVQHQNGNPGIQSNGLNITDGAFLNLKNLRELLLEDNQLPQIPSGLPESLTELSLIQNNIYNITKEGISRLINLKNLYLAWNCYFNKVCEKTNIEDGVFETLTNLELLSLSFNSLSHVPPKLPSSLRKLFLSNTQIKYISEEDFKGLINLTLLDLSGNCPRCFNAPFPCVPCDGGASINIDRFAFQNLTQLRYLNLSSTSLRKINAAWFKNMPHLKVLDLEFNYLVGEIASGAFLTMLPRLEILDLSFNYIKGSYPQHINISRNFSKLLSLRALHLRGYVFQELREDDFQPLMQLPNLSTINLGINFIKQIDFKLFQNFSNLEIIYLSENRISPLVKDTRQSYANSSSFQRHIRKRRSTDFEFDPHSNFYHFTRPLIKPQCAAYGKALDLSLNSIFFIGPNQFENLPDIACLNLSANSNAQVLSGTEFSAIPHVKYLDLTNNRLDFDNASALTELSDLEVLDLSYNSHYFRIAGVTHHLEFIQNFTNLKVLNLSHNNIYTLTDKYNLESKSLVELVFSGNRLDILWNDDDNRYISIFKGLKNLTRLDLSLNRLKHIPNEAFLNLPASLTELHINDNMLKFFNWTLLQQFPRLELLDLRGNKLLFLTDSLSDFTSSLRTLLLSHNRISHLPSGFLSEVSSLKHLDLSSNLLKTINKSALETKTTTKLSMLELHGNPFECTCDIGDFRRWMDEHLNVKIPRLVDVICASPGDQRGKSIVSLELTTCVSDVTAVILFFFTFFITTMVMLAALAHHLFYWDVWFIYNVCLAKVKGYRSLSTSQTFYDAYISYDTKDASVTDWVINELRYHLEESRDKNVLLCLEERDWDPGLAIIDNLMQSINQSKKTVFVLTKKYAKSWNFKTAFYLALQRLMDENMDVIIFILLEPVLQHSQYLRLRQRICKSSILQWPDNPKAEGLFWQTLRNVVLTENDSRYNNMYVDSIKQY
Sequence of human TLR9 (Q9NR96 26-1032): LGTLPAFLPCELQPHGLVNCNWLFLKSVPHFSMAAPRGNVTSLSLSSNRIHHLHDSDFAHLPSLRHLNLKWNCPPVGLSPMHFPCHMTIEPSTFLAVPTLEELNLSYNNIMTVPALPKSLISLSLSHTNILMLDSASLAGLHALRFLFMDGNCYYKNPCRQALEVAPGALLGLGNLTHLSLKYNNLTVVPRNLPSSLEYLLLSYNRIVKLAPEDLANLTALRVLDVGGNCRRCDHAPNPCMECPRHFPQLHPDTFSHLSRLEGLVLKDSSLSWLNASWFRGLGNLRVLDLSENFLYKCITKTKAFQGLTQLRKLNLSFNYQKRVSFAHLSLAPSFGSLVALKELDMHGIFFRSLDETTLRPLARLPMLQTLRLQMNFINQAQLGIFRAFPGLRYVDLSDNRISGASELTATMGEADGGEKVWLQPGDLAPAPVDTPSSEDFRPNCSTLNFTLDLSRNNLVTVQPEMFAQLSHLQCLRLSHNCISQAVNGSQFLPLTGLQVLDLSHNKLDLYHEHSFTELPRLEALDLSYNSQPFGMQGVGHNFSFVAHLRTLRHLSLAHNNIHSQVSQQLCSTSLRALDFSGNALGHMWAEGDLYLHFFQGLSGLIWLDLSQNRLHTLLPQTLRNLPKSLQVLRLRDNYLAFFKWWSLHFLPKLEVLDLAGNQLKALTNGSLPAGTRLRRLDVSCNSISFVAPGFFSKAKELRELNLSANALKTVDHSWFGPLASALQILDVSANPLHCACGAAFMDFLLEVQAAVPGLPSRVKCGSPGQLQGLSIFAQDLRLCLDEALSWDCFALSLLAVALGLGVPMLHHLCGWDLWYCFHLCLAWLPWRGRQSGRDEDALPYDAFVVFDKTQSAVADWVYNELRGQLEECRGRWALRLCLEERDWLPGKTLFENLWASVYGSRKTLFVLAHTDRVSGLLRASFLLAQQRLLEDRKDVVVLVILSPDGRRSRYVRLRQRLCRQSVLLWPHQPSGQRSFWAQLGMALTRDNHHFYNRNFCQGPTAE

| Compound | pIC50 (human TLR7) | pIC50 (human TLR8) | pIC50 (human TLR9) |
| --- | --- | --- | --- |
| COc1ccc(-c2[nH]c3ccc(-c4nnc(CC(F)(F)F)o4)cc3c2C(C)C)cc1OC [Example 64, 2-(2-(3,4-dimethoxyphenyl)-3-isopropyl-1H-indol-5-yl)-5-(2,2,2-trifluoroethyl)-1,3,4-oxadiazole] | 5.99 | 6.47 | < 4.30 |
| Cc1cc(-c2[nH]c3ccc(-c4nnc(C5CCN(CC(=O)N(C)C)CC5)o4)cc3c2C(C)C)ccn1 [Example 65, 2-(4-(5-(3-isopropyl-2-(2-methylpyridin-4-yl)-1H-indol-5-yl)-1,3,4-oxadiazol-2-yl)piperidin-1-yl)-N,N-dimethylacetamide] | 7.01 | 8.54 | 5.70 |
| CNCCN1CCC(c2nnc(-c3ccc4[nH]c(-c5ccc(OC)c(OC)c5)c(CC(F)(F)F)c4c3)o2)CC1 [Example 67, 2-(4-(5-(2-(3,4-dimethoxyphenyl)-3-(2,2,2-trifluoroethyl)-1H-indol-5-yl)-1,3,4-oxadiazol-2-yl)piperidin-1-yl)-N-methylethan-1-amine] | 6.61 | 7.24 | 6.50 |
| Cc1cc(-c2[nH]c3ccc(-c4nnc([C@@H]5CSCN5)o4)cc3c2C(C)C)ccn1 [Example 68, (R)-2-(3-isopropyl-2-(2-methylpyridin-4-yl)-1H-indol-5-yl)-5-(thiazolidin-4-yl)-1,3,4-oxadiazole] | 6.49 | 7.39 | 4.50 |
| Cc1cc(-c2[nH]c3ccc(-c4nnc([C@H]5CCCNC5)o4)cc3c2C(C)C)ccn1 [Example 69, (S)-2-(3-isopropyl-2-(2-methylpyridin-4-yl)-1H-indol-5-yl)-5-(piperidin-3-yl)-1,3,4-oxadiazole] | 7.80 | 9.05 | 6.16 |
| Cc1cc(-c2[nH]c3ccc(-c4nnc(C[C@@H]5CCCN5)o4)cc3c2C(C)C)ccn1 [Example 71, (S)-2-(3-isopropyl-2-(2-methylpyridin-4-yl)-1H-indol-5-yl)-5-(pyrrolidin-2-ylmethyl)-1,3,4-oxadiazole] | 7.41 | 8.85 | 5.16 |
| Cc1cc(-c2[nH]c3ccc(-c4nnc(Cc5c[nH]c6ccccc56)o4)cc3c2C(C)C)ccn1 [Example 73, 2-((1H-indol-3-yl)methyl)-5-(3-isopropyl-2-(2-methylpyridin-4-yl)-1H-indol-5-yl)-1,3,4-oxadiazole] | 5.64 | 5.89 | < 4.30 |
| Cc1cc(-c2[nH]c3ccc(-c4nnc(Cc5nnn[nH]5)o4)cc3c2C(C)C)ccn1 [Example 76, 2-((1H-tetrazol-5-yl)methyl)-5-(3-isopropyl-2-(2-methylpyridin-4-yl)-1H-indol-5-yl)-1,3,4-oxadiazole] | 5.72 | 6.32 | < 4.30 |
| Cc1cc(-c2[nH]c3ccc(-c4nnc(CCCN(C)C)o4)cc3c2C(C)C)ccn1 [Example 77, 3-(5-(3-isopropyl-2-(2-methylpyridin-4-yl)-1H-indol-5-yl)-1,3,4-oxadiazol-2-yl)-N,N-dimethylpropan-1-amine] | 7.54 | 8.77 | 6.16 |
| Cc1cc(-c2[nH]c3ccc(-c4nnc(C5CCC(C(F)(F)F)CC5)o4)cc3c2C(C)C)ccn1 (stereo not drawn) [Example 78, 2-(3-isopropyl-2-(2-methylpyridin-4-yl)-1H-indol-5-yl)-5-(4-(trifluoromethyl)cyclohexyl)-1,3,4-oxadiazole] | 5.57 | 6.27 | < 4.30 |
| Cc1cc(-c2[nH]c3ccc(-c4nnc(CN5CCN(C)CC5)o4)cc3c2C(C)C)ccn1 [Example 79, 2-(3-isopropyl-2-(2-methylpyridin-4-yl)-1H-indol-5-yl)-5-((4-methylpiperazin-1-yl)methyl)-1,3,4-oxadiazole] | 7.19 | 8.12 | 5.90 |
| Cc1cc(-c2[nH]c3ccc(-c4nnc([C@@H]5CCCNC5)o4)cc3c2C(C)C)ccn1 [Example 80, (R)-2-(3-isopropyl-2-(2-methylpyridin-4-yl)-1H-indol-5-yl)-5-(piperidin-3-yl)-1,3,4-oxadiazole] | 7.72 | 8.92 | 6.23 |
| Cc1cc(-c2[nH]c3ccc(-c4nnc([C@H]5CSCN5)o4)cc3c2C(C)C)ccn1 [Example 82, (S)-2-(3-isopropyl-2-(2-methylpyridin-4-yl)-1H-indol-5-yl)-5-(thiazolidin-4-yl)-1,3,4-oxadiazole] | 6.22 | 7.02 | < 4.30 |
| COc1ccc(-c2[nH]c3ccc(-c4nnc(C5CCN(CC(=O)N(C)C)CC5)o4)cc3c2CC(F)(F)F)cc1OC [Example 83, 2-(4-(5-(2-(3,4-dimethoxyphenyl)-3-(2,2,2-trifluoroethyl)-1H-indol-5-yl)-1,3,4-oxadiazol-2-yl)piperidin-1-yl)-N,N-dimethylacetamide] | 6.80 | 7.40 | 5.59 |
| CC(C)c1c(-c2ccnc3[nH]ncc23)[nH]c2ccc(-c3nnc(C4CCN(CC(=O)N(C)C)CC4)o3)cc12 [Example 87, 2-(4-(5-(3-isopropyl-2-(1H-pyrazolo[3,4-b]pyridin-4-yl)-1H-indol-5-yl)-1,3,4-oxadiazol-2-yl)piperidin-1-yl)-N,N-dimethylacetamide] | 6.26 | 8.01 | 5.25 |
| CNC(=O)CN1CCC(c2nnc(-c3ccc4[nH]c(-c5ccnc6[nH]ncc56)c(C(C)C)c4c3)o2)CC1 [Example 88, 2-(4-(5-(3-isopropyl-2-(1H-pyrazolo[3,4-b]pyridin-4-yl)-1H-indol-5-yl)-1,3,4-oxadiazol-2-yl)piperidin-1-yl)-N-methylacetamide] | 6.53 | 8.00 | 5.32 |
| CCN(CC)C(=O)C1CCCN(C(=O)c2nnc(-c3ccc4[nH]c(-c5ccc(OC)c(OC)c5)c(C(C)C)c4c3)o2)C1 (stereo not drawn) [Example 89, 1-(5-(2-(3,4-dimethoxyphenyl)-3-isopropyl-1H-indol-5-yl)-1,3,4-oxadiazole-2-carbonyl)-N,N-diethylpiperidine-3-carboxamide] | 5.83 | 6.66 | 5.02 |
| COc1ccc(-c2[nH]c3ccc(-c4nnc(C(=O)NCCN(C)C)o4)cc3c2C(C)C)cc1OC [Example 90, 5-(2-(3,4-dimethoxyphenyl)-3-isopropyl-1H-indol-5-yl)-N-(2-(dimethylamino)ethyl)-1,3,4-oxadiazole-2-carboxamide] | 7.52 | 8.40 | 6.10 |

More lines, in order of rising pIC50 (human TLR7), values ahead:

| pIC50 (human TLR7) | pIC50 (human TLR8) | pIC50 (human TLR9) | Compound |
| --- | --- | --- | --- |
| 6.10 | 7.35 | 5.73 | Cc1cc(-c2[nH]c3ccc(-c4nnc([C@H]5Cc6ccccc6CN5)o4)cc3c2C(C)C)ccn1 [Example 72, (R)-2-(3-isopropyl-2-(2-methylpyridin-4-yl)-1H-indol-5-yl)-5-(1,2,3,4-tetrahydroisoquinolin-3-yl)-1,3,4-oxadiazole] |
| 6.11 | 7.14 | < 4.30 | Cc1cc(-c2[nH]c3ccc(-c4nnc([C@@H]5Cc6ccccc6CN5)o4)cc3c2C(C)C)ccn1 [Example 81, (S)-2-(3-isopropyl-2-(2-methylpyridin-4-yl)-1H-indol-5-yl)-5-(1,2,3,4-tetrahydroisoquinolin-3-yl)-1,3,4-oxadiazole] |
| 6.24 | 7.14 | < 4.30 | Cc1cc(-c2[nH]c3ccc(-c4nnc(CC(F)(F)F)o4)cc3c2C(C)C)ccn1 [Example 75, 2-(3-isopropyl-2-(2-methylpyridin-4-yl)-1H-indol-5-yl)-5-(2,2,2-trifluoroethyl)-1,3,4-oxadiazole] |
| 6.48 | 8.04 | 6.23 | CC(C)c1c(-c2ccnc3[nH]ncc23)[nH]c2ccc(-c3nnc(C(=O)N4CC5CNCC5C4)o3)cc12 (stereo not drawn) [Example 85, (hexahydropyrrolo[3,4-c]pyrrol-2(1H)-yl)(5-(3-isopropyl-2-(1H-pyrazolo[3,4-b]pyridin-4-yl)-1H-indol-5-yl)-1,3,4-oxadiazol-2-yl)methanone] |
| 6.88 | 7.68 | 4.80 | Cc1cc(-c2[nH]c3ccc(-c4nnc(Cc5cccnc5)o4)cc3c2C(C)C)ccn1 [Example 74, 2-(3-isopropyl-2-(2-methylpyridin-4-yl)-1H-indol-5-yl)-5-(pyridin-3-ylmethyl)-1,3,4-oxadiazole] |
| 7.06 | 8.22 | 6.63 | CC(C)c1c(-c2ccnc3[nH]ncc23)[nH]c2ccc(-c3nnc(C(=O)NC4CCN(C(C)C)CC4)o3)cc12 [Example 84, 5-(3-isopropyl-2-(1H-pyrazolo[3,4-b]pyridin-4-yl)-1H-indol-5-yl)-N-(1-isopropylpiperidin-4-yl)-1,3,4-oxadiazole-2-carboxamide] |
| 7.07 | 8.21 | 6.49 | CC(C)c1c(-c2ccnc3[nH]ncc23)[nH]c2ccc(-c3nnc(C4CCN(C(=O)CN(C)C)CC4)o3)cc12 [Example 86, 2-(dimethylamino)-1-(4-(5-(3-isopropyl-2-(1H-pyrazolo[3,4-b]pyridin-4-yl)-1H-indol-5-yl)-1,3,4-oxadiazol-2-yl)piperidin-1-yl)ethan-1-one] |
| 7.28 | 7.42 | 5.64 | Cc1cc(-c2[nH]c3ccc(-c4nnc(C5CCNCC5)o4)cc3c2C(C)C)ccn1 [Example 66, 2-(3-isopropyl-2-(2-methylpyridin-4-yl)-1H-indol-5-yl)-5-(piperidin-4-yl)-1,3,4-oxadiazole] |
| 7.42 | 8.17 | 5.30 | Cc1cc(-c2[nH]c3ccc(-c4nnc(C5CNCCO5)o4)cc3c2C(C)C)ccn1 (stereo not drawn) [Example 70, 2-(5-(3-isopropyl-2-(2-methylpyridin-4-yl)-1H-indol-5-yl)-1,3,4-oxadiazol-2-yl)morpholine] |
